Values joined by “and” are separate entries in the source; they are usually repeats but may differ in a detail not shown here. Equal values may be shown once. Read-outs that look alike come from different tables or passages of the source.
Tests used:
[1] = target: B. taurus (heart) complex I (Bos taurus, UniProt P03887+P17694+P42026); experiment: biochemical; type: biochemical
Outline: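 Complex I activity followed as DCIP reduction (600 nm, 30 s reads, 15 min) with 80 μM NADH and 60 μM decylubiquinone in 25 mM KPi pH 7.5 containing 2 μM antimycin A and 2 mM KCN. Freeze-thawed mouse or bovine heart mitochondria at 0.2 mg/mL; initial-rate percent of solvent control, single-point 100 μM or dose-response.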

[2] = target: C. elegans (N2) complex I (NADH:ubiquinone oxidoreductase) (Caenorhabditis elegans, UniProt P24887+Q93873+Q94360); experiment: biochemical; type: biochemical; details: wild-type C. elegans mitochondria, read-out: percent (%) in vitro complex I activity relative to solvent control
Outline: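 Mitochondria, 0.2 mg/mL protein, freeze-thawed three times, assayed in 25 mM KPi pH 7.5 with BSA, 80 μM NADH, 60 μM decylubiquinone, 160 μM DCIP, antimycin A and KCN. Rate from initial linear slope of A600 over 15 min. % of solvent control.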

Chain of B. taurus (heart) complex I (P03887 whole entry): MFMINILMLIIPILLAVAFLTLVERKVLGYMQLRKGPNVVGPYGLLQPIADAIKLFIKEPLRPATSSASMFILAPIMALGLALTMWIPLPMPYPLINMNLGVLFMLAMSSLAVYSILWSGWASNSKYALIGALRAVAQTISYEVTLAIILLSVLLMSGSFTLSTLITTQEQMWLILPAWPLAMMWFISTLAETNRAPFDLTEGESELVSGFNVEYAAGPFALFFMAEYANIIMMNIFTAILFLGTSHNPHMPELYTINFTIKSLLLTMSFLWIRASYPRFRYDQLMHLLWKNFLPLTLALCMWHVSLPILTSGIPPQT
Chain of B. taurus (heart) complex I (P17694 34-463): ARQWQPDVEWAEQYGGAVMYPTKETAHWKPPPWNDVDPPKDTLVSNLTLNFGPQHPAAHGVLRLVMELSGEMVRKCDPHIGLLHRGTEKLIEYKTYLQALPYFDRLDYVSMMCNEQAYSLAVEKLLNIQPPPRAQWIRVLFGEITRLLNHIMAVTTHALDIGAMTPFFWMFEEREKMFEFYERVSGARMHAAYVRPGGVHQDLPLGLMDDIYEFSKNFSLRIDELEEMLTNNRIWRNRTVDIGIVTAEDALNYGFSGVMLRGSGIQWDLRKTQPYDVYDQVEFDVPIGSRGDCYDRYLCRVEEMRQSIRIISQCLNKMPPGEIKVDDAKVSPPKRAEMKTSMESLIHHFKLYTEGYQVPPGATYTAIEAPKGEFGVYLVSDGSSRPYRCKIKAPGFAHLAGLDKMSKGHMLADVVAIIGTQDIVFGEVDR
Chain of B. taurus (heart) complex I (P42026 38-216): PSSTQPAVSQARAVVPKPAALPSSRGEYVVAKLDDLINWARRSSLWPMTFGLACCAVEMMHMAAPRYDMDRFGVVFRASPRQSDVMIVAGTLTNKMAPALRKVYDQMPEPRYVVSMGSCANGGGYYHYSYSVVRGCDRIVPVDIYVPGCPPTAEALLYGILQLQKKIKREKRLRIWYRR
Chain of C. elegans (N2) complex I (NADH:ubiquinone oxidoreductase) (Q94360 17-199): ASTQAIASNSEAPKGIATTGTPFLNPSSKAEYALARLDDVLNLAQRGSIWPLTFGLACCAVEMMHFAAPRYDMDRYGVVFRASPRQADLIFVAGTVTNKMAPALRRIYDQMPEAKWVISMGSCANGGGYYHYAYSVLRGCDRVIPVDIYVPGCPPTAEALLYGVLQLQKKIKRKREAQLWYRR
Chain of C. elegans (N2) complex I (NADH:ubiquinone oxidoreductase) (P24887 whole entry): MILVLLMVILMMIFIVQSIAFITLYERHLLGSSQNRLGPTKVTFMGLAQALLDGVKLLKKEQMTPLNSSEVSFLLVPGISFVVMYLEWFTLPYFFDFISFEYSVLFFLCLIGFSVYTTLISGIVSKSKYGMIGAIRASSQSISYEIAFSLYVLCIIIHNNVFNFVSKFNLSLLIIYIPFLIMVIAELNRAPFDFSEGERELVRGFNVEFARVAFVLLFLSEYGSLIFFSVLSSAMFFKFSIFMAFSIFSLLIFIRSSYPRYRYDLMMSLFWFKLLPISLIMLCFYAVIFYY
Chain of C. elegans (N2) complex I (NADH:ubiquinone oxidoreductase) (Q93873 31-482): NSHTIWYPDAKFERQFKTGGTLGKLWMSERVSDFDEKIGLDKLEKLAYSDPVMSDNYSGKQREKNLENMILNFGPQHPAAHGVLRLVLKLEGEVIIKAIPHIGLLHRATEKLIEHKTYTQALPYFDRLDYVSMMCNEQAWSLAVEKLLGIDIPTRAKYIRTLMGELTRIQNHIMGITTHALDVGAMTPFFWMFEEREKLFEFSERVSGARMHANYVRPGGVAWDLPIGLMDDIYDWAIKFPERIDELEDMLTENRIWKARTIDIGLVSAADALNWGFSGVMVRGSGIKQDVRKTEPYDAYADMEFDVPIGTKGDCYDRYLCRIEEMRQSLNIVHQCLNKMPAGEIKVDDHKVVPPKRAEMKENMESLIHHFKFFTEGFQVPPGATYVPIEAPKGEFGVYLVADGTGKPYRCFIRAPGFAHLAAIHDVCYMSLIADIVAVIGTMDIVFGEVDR

For `COc1cc2c(cc1OC)C(/C=C/c1ccc(N(C)C)cc1)=NCC2` [NPD6303], the activity at 0.0001 µM ([1]; B. taurus, dose 0.0001 µM, Mean of replicates, read-out: Complex I activity, dose-response data) was 91.7%, the “Complex I activity, dose-response data” value ([1]; B. taurus, dose 0.0001 µM, individual replicates (Rep)) was 93.903 and 88.856 and 86.554 and the activity at 0.0001 µM ([1]; B. taurus, dose 0.0001 µM, individual replicates (Rep), read-out: Complex I activity, dose-response data) was 97.5%. The activity at 0.0005 µM ([1]; B. taurus, dose 0.0005 µM, Mean of replicates, read-out: Complex I activity, dose-response data) was 92.3%, the “Complex I activity, dose-response data” value ([1]; B. taurus, dose 0.0005 µM, individual replicates (Rep)) was 92.515 and 88.363 and 93.860 and the activity at 0.0005 µM ([1]; B. taurus, dose 0.0005 µM, individual replicates (Rep), read-out: Complex I activity, dose-response data) was 94.5%. For the same molecule, the activity at 0.001 µM ([1]; B. taurus, dose 0.001 µM, Mean of replicates, read-out: Complex I activity, dose-response data) was 92%, the “Complex I activity, dose-response data” value ([1]; B. taurus, dose 0.001 µM, individual replicates (Rep)) was 95.392 and 88.341 and 90.155 and the activity at 0.001 µM ([1]; B. taurus, dose 0.001 µM, individual replicates (Rep), read-out: Complex I activity, dose-response data) was 93.9%. The activity at 0.0025 µM ([1]; B. taurus, dose 0.0025 µM, Mean of replicates, read-out: Complex I activity, dose-response data) was 91.7%, the “Complex I activity, dose-response data” value ([1]; B. taurus, dose 0.0025 µM, individual replicates (Rep)) was 92.736 and 89.606 and 94.534 and the activity at 0.0025 µM ([1]; B. taurus, dose 0.0025 µM, individual replicates (Rep), read-out: Complex I activity, dose-response data) was 89.8%. The activity at 0.005 µM ([1]; B. taurus, dose 0.005 µM, Mean of replicates, read-out: Complex I activity, dose-response data) was 93.7%, the “Complex I activity, dose-response data” value ([1]; B. taurus, dose 0.005 µM, individual replicates (Rep)) was 98.592 and 81.676 and 99.845 and the activity at 0.005 µM ([1]; B. taurus, dose 0.005 µM, individual replicates (Rep), read-out: Complex I activity, dose-response data) was 94.8%. For the same molecule, the activity at 0.013 µM ([1]; B. taurus, dose 0.013 µM, Mean of replicates, read-out: Complex I activity, dose-response data) was 94.7%, the “Complex I activity, dose-response data” value ([1]; B. taurus, dose 0.013 µM, individual replicates (Rep)) was 95.041 and 103.924 and 78.354 and 101.425 and the activity at 0.025 µM ([1]; B. taurus, dose 0.025 µM, Mean of replicates, read-out: Complex I activity, dose-response data) was 91.5%. The “Complex I activity, dose-response data” value ([1]; B. taurus, dose 0.025 µM, individual replicates (Rep)) was 93.260 and 100.684 and 76.425 and 95.829, the activity at 0.063 µM ([1]; B. taurus, dose 0.063 µM, Mean of replicates, read-out: Complex I activity, dose-response data) was 90.4% and the “Complex I activity, dose-response data” value ([1]; B. taurus, dose 0.063 µM, individual replicates (Rep)) was 90.670 and 95.493 and 75.718 and 99.663. The activity at 0.125 µM ([1]; B. taurus, dose 0.125 µM, Mean of replicates, read-out: Complex I activity, dose-response data) was 88.5%, the “Complex I activity, dose-response data” value ([1]; B. taurus, dose 0.125 µM, individual replicates (Rep)) was 91.682 and 93.823 and 68.860 and 99.585 and the activity at 0.313 µM ([1]; B. taurus, dose 0.313 µM, Mean of replicates, read-out: Complex I activity, dose-response data) was 88.2%. The “Complex I activity, dose-response data” value ([1]; B. taurus, dose 0.313 µM, individual replicates (Rep)) was 96.036 and 78.933 and 86.373, the activity at 0.313 µM ([1]; B. taurus, dose 0.313 µM, individual replicates (Rep), read-out: Complex I activity, dose-response data) was 91.3% and the activity at 0.625 µM ([1]; B. taurus, dose 0.625 µM, Mean of replicates, read-out: Complex I activity, dose-response data) was 97.3%. The “Complex I activity, dose-response data” value ([1]; B. taurus, dose 0.625 µM, individual replicates (Rep)) was 107.704 and 91.974 and 95.636, the activity at 0.625 µM ([1]; B. taurus, dose 0.625 µM, individual replicates (Rep), read-out: Complex I activity, dose-response data) was 93.9% and the activity at 1.5 µM ([1]; B. taurus, dose 1.5 µM, Mean of replicates, read-out: Complex I activity, dose-response data) was 93.1%. For the same molecule, the “Complex I activity, dose-response data” value ([1]; B. taurus, dose 1.5 µM, individual replicates (Rep)) was 104.204 and 86.663 and 89.601, the activity at 1.5 µM ([1]; B. taurus, dose 1.5 µM, individual replicates (Rep), read-out: Complex I activity, dose-response data) was 92.1% and the activity at 3 µM ([1]; B. taurus, dose 3 µM, Mean of replicates, read-out: Complex I activity, dose-response data) was 91.2%. For the same molecule, the “Complex I activity, dose-response data” value ([1]; B. taurus, dose 3 µM, individual replicates (Rep)) was 87.892 and 104.226 and 89.807 and 82.898, the activity at 15 µM ([1]; B. taurus, dose 15 µM, Mean of replicates, read-out: Complex I activity, dose-response data) was 76.4% and the “Complex I activity, dose-response data” value ([1]; B. taurus, dose 15 µM, individual replicates (Rep)) was 86.661 and 69.921 and 66.695. The activity at 15 µM ([1]; B. taurus, dose 15 µM, individual replicates (Rep), read-out: Complex I activity, dose-response data) was 82.4%, the activity at 37.5 µM ([1]; B. taurus, dose 37.5 µM, Mean of replicates, read-out: Complex I activity, dose-response data) was 51.7% and the “Complex I activity, dose-response data” value ([1]; B. taurus, dose 37.5 µM, individual replicates (Rep)) was 53.115 and 63.240 and 41.319 and 49.280. For the same molecule, the activity at 75 µM ([1]; B. taurus, dose 75 µM, Mean of replicates, read-out: Complex I activity, dose-response data) was 29.9%, the “Complex I activity, dose-response data” value ([1]; B. taurus, dose 75 µM, individual replicates (Rep)) was 35.395 and 24.387 and 27.438 and the activity at 75 µM ([1]; B. taurus, dose 75 µM, individual replicates (Rep), read-out: Complex I activity, dose-response data) was 32.4%. For the same molecule, the IC50 ([1]; heart mitochondria, read-out: B. taurus Complex I IC50) was 34.3 µM, the remaining activity at 0.125 µM ([2]; mean of replicates) was 93.1% and the remaining activity at 0.125 µM ([2]; single replicate) was 103%. For the same molecule, the remaining activity at 0.313 µM ([2]; mean of replicates) was 88%, the remaining activity at 0.313 µM ([2]; single replicate) was 83.6% and the remaining activity at 0.625 µM ([2]; mean of replicates) was 108%. It also gave a remaining activity at 0.625 µM ([2]; single replicate) of 106%, a remaining activity at 1.5 µM ([2]; mean of replicates) of 100% and a remaining activity at 1.5 µM ([2]; single replicate) of 100%. For the same molecule, the remaining activity at 3 µM ([2]; 3 µM, mean of replicates) was 89.5%.
